According to patent publication US7718653B2, “Pyrimidine derivatives for inhibiting Eph receptors” (AstraZeneca AB, priority 2007, dated 2010):
Read-outs that look alike come from different tables or passages of the source.

Experiments:
recombinant EphA2 = target: T1, recombinant EphA2 (Homo sapiens, UniProt P29317); test: In vitro EphA2 enzyme assay (Alphascreen, phosphorylation of biotin-poly-GAT); type: biochemical
T1 construct: amino acids 591-976; Swiss-Prot Acc; No. P29317; purchased ProQinase GmbH 0368-0000-1
T1 sequence (P29317 591-976): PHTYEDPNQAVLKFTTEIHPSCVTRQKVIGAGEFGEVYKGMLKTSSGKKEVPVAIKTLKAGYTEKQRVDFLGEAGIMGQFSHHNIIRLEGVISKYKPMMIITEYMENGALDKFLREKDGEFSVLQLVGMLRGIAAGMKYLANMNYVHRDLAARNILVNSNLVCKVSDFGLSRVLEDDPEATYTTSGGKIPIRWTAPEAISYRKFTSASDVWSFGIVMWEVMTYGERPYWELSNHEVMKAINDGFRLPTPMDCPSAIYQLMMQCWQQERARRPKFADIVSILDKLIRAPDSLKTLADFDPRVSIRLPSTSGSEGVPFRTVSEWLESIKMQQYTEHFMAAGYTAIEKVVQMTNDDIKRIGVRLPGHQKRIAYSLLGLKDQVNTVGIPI
Protocol: C) In vitro EphA2 Enzyme Assay
(§1) This assay detects inhibitors of EphA2-mediated phosphorylation of a polypeptide substrate using Alphascreen™ luminescence detection technology. Briefly, recombinant EphA2 was incubated with a biotinylated-polypeptide substrate (biotin-poly-GAT) in presence of magnesium-ATP. The reaction was stopped by addition of EDTA, together with streptavidin-coated donor beads which bind the biotin-substrate containing any phosphorylated tyrosine residues. Anti-phosphotyrosine antibodies present on acceptor beads bind to phosphorylated substrate, thus bringing the donor & acceptor beads into close proximity. Subsequent excitation of the donor beads at 680 nm generated singlet oxygen species that interact with a chemiluminescer on the acceptor beads, leading to light emission at 520-620 nm. The signal intensity is directly proportional to the level of substrate phosphorylation and thus inhibition is measured by a decrease in signal.
Test compounds were prepared as 10 mM stock solutions in DMSO (Sigma-Aldrich Company Ltd, Gillingham, Dorset SP8 4XT Catalogue No. 154938) and serially diluted with 5% DMSO to give a range of test concentrations at 6× the required final concentration. […]
The resulting assay signal was determined on the Perkin Elmer EnVision plate reader. […]

recombinant EphB4 = target: T2, recombinant EphB4 (Homo sapiens, UniProt P54760); test: In vitro EphB4 enzyme assay (Alphascreen, phosphorylation of biotin-poly-GAT); type: biochemical; settings: * = tested once only, read-out: EphB4 enzyme assay Mean IC50 value
T2 construct: amino acids 563-987; Swiss-Prot Acc; No. P54760; purchased ProQinase GmbH 0178-0000-3
T2 sequence (P54760 563-987): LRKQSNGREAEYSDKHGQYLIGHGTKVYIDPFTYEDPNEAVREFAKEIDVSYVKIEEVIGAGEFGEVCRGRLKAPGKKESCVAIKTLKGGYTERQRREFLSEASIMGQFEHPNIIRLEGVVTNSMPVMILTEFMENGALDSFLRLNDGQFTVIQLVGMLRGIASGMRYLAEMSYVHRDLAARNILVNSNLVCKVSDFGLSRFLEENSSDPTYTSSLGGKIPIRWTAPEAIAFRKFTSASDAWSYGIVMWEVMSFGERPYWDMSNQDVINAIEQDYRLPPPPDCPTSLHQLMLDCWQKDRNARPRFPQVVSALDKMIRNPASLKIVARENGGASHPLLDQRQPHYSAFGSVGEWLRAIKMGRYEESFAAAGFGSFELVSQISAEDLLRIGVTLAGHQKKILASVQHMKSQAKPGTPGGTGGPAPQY
Protocol: A) In vitro EphB4 Enzyme Assay
as §1, with “EphB4-mediated” for “EphA2-mediated”, “EphB4” for “EphA2”
Aqueous Compound Preparation:
Acoustic Compound Preparation:
To ensure that each well contained a total of 120 nl DMSO the wells were all backfilled as required. […] The test range of compounds was 100× the required final concentration.
Assay plates were then incubated at room temperature for 1 hour.
For assays using compounds prepared via acoustic dispensing, the assay mix was adjusted such that the final assay volume of 12 ul contained the same concentration of reagent as 10 ul of assay mix used when aqueous compounds were tested.
The plates were sealed under natural lighting conditions, wrapped in aluminium foil and incubated in the dark for a further 20 hours.
The resulting assay signal was determined on the Perkin Elmer EnVision plate reader. The minimum value was subtracted from all values, and the signal plotted against compound concentration to generate IC50 data. The method used to generate the compound dilutions was recorded with the IC50 value in the database.

[1] = Method of compound preparation: Echo (acoustic dispensing)
[2] = Method of compound preparation: Genesis (aqueous compound preparation)

Compound | IC50 (recombinant EphA2) | IC50 (recombinant EphB4; [1]) | IC50 (recombinant EphB4; [2])
Cc1nc(Nc2nccc(Nc3c(Cl)ccc4c3OCO4)n2)cc(N2CCN(C)CC2)n1 [Example 12, N′-(5-chloro-1,3-benzodioxol-4-yl)-N-[2-methyl-6-(4-methylpiperazin-1-yl)pyrimidin-4-yl]pyrimidine-2,4-diamine] | – | – | 6440 nM
CN(c1ccnc(Nc2cc(Cl)cc(N3CCOCC3)n2)n1)c1cccc2[nH]ncc12 [Example 6, N-(4-chloro-6-morpholin-4-yl-pyridin-2-yl)-N′-(1H-indazol-4-yl)-N′-methyl-pyrimidine-2,4-diamine] | – | 7 nM | 973 nM
Clc1ccc2c(c1Nc1ccnc(Nc3cccc(N4CCOCC4)n3)n1)OCO2 [Example 10, N′-(5-chloro-1,3-benzodioxol-4-yl)-N-(6-morpholino-2-pyridyl)pyrimidine-2,4-diamine] | 566 nM | 64 nM | 817 nM

These reach a lower IC50 (recombinant EphB4; [2]). Values come first.

IC50 (recombinant EphA2) | IC50 (recombinant EphB4; [1]) | IC50 (recombinant EphB4; [2]) | Compound
– | – | 605 nM | CN(c1ccnc(Nc2cc(N3CCOCC3)nc(N3CCOCC3)c2)n1)c1c(Cl)ccc2c1OCO2 [Example 2, N4-(5-chlorobenzo[d][1,3]dioxol-4-yl)-N2-(2,6-dimorpholinopyridin-4-yl)-N4-methylpyrimidine-2,4-diamine]
– | – | 501 nM | Clc1ccc2c(c1Nc1ccnc(Nc3cc(N4CCOCC4)nc(N4CCOCC4)c3)n1)OCO2 [Example 1, N4-(5-chlorobenzo[d][1,3]dioxol-4-yl)-N2-(2,6-dimorpholinopyridin-4-yl)pyrimidine-2,4-diamine]
– | 4 nM | 445 nM | CN(c1ccnc(Nc2cc(Cl)nc(N3CCOCC3)c2)n1)c1cccc2[nH]ncc12 [Example 8, N-(2-chloro-6-morpholin-4-yl-pyridin-4-yl)-N′-(1H-indazol-4-yl)-N′-methyl-pyrimidine-2,4-diamine]
131 nM | 52 nM | 170 nM | Clc1ccc2c(c1Nc1ccnc(Nc3cc(N4CCOCC4)ccn3)n1)OCO2 [Example 9, N′-(5-chloro-1,3-benzodioxol-4-yl)-N-(4-morpholino-2-2pyridyl)pyrimidine-2,4-diamine]
– | 3 nM | 146 nM | CN(c1ccnc(Nc2ccnc(N3CCOCC3)c2)n1)c1cccc2[nH]ncc12 [Example 4, N′-(1H-indazol-4-yl)-N′-methyl-N-(2-morpholin-4-ylpyridin-4-yl)pyrimidine-2,4-diamine]
